Key:
[1] = test system: S6RP serine-240/244 phosphorylation; assay: In vitro phospho-S6 cellular assay; type: cell-based; settings: Homo sapiens; HEK293T/17 cells, 2 hours; read-out: pS6 inhibition value (IC50), activity level
From the text: Activation of mTOR signaling results in phosphorylation of several downstream targets. In cells, mTOR exists in two different protein complexes. The mTOR Complex-1 (mTORC1) phosphorylates and activates S6 Kinase 1 (S6K1) and S6 Kinase 2 (S6K2) (also known as p70S6K) which then phosphorylate S6 Ribosomal Protein (S6RP) (also known as RPS6)3. S6RP is phosphorylated on serine 235, serine 236, serine 240 and serine 244 by both pS6K1 and pS6K2. The mTOR Complex-2 (mTORC2) phosphorylates AKT on serine 473 which activates the AKT signaling pathway.
The assay measures a test compound's inhibition of S6RP serine-240/244 phosphorylation and inhibition of Akt serine-473 phosphorylation in human embryonic kidney derived HEK293T/17 cells (ATCC CRL-11268).
The HEK293T/17 cell line is maintained in DMEM media (Invitrogen catalogue number 41965-039) supplemented with 10% FCS at 37° C. in a 5% CO2 humidified incubator.
Cells are seeded in 96-well plates at 40,000 cells/well (pS6RP S240/244 assay) or 80,000 cells/well (pAkt S473 assay) in 90 μl growth media (DMEM, 2% FCS). Plates are incubated for 1 hour in a humidified incubator to allow the cells to adhere. Cells are treated with 8 concentrations of test compounds or DMSO alone for controls (final DMSO concentration 0.1%) and incubated at 37° C. for 2 hours. Then 20 μl of 5× concentrated lysis buffer (750 mM NaCl, 100 mM Tris pH7.4, 5 mM ADTA, 5 mM EGTA, 5% Triton X-100) is added, plates are sealed and incubated for 15 minutes at 4° C. with gentle shaking. After cell lysis, 25 μl cell lysate is transferred to a MesoScale plate coated with an antibody to pS6RP Ser240/244 (MesoScale Discovery K150DGD-3) or an antibody to pAkt Ser 473 (MesoScale Discovery K151DGD-3). Plates have been blocked before by incubation with 150 μl MesoScale Discovery Blocking Solution-A for 1 hour at room temperature followed by washing with 150 μl 1× Tris wash buffer per well. After the transfer of the cell lysate to the MSD plate, the pS6RP (or pAkt) protein is captured on the coated antibody by incubation at room temperature for 1 hour with gentle shaking. After the capture step the plate is washed three times with 150 μl of 1× Tris wash buffer per well. Then 25 μl detection antibody conjugated with a Sulfo-Tag is added and incubated for 1 hour at room temperature with gentle shaking. Subsequently the antibody solution is removed and the plate is washed 3 times with 150 μl 1× Tris wash buffer per well and 150 μl Read buffer is added. The plates are analysed on a MSD 2400 Plate Reader (MesoScale Discovery). Data analysis is performed using nonlinear regression for a sigmoidal dose-response with a variable slope.

mTOR = mTOR (Homo sapiens, UniProt P42345); assay: biochemical
[2] = molecular target: DNA-dependent protein kinase (DNA-PK) (Homo sapiens, UniProt P78527); assay: biochemical
[3] = test system: IFNγ release in whole blood; assay: In vitro human whole blood assay (IFNγ release); type: cell-based; settings: αCD3/αCD28 and IL-2 stimulation, 18 hours, read-out: WB inhibition value (pIC50) (converted)
Description: This assay measures IFNγ release in whole blood after αCD3/αCD28 and IL-2 treatment. The whole blood contains circulating T lymphocytes; αCD3/αCD28 stimulation mimics antigen receptor signalling, resulting in epigenetic changes to the IFNG gene locus, such that when IL-2 is added, IFNγ is produced.
Human whole blood, with Na-heparin as the anticoagulant, is obtained from Clinical Trials Laboratory Services. Blood is diluted 1.4 times with RPMI 1640 (Lonza, BE12-167F) and 175 μl/well is distributed in a low evaporation 96-well plates (Falcon, BD Labware, 353072). Blood is treated with 10 concentrations of test compounds or DMSO alone for controls (final DMSO concentration 0.2%) and incubated at 37° C. for 1 hour. Blood is then stimulated with 1 μg/ml αCD3 (R&D Systems, MAB100), 1 μg/ml αCD28 (BD Pharmingen, 555725) and IL-2 at 10 ng/ml (Peprotech, 200-02). Blood is then left to incubate at 37° C. for 18 hours. After, plates are spun at 250 g for 5 minutes to pellet blood cells and 25 μl of plasma is transferred to a MesoScale plate coated with an antibody to IFNγ (MesoScale Discovery K151AEC-2) containing 25 μl/well MesoScale Discovery Blocking Solution-2. Plates have been blocked by incubating with 25 μl/well MesoScale Discovery Blocking Solution-2 for 30 minutes at room temperature. After the transfer of sera to the MSD plate, the IFNγ protein is captured on the coated antibody by incubation at room temperature for 2 hour with gentle shaking. After the capture step the plate is washed three times with 150 μl/well of 1×PBS-Tween wash buffer and 25 μl/well detection antibody conjugated with a Sulfo-Tag is added and incubated for 2 hours at room temperature with gentle shaking. Subsequently the antibody solution is removed and the plate is washed 3 times with 150 μl/well 1×PBS-Tween wash buffer and 150 μl/well MesoScale Discovery Read buffer is added. The plates are analysed on a MSD 2400 Plate Reader (MesoScale Discovery). Data analysis is performed using nonlinear regression for a sigmoidal dose-response with a variable slope.

Chain of DNA-dependent protein kinase (DNA-PK) (P78527 whole entry): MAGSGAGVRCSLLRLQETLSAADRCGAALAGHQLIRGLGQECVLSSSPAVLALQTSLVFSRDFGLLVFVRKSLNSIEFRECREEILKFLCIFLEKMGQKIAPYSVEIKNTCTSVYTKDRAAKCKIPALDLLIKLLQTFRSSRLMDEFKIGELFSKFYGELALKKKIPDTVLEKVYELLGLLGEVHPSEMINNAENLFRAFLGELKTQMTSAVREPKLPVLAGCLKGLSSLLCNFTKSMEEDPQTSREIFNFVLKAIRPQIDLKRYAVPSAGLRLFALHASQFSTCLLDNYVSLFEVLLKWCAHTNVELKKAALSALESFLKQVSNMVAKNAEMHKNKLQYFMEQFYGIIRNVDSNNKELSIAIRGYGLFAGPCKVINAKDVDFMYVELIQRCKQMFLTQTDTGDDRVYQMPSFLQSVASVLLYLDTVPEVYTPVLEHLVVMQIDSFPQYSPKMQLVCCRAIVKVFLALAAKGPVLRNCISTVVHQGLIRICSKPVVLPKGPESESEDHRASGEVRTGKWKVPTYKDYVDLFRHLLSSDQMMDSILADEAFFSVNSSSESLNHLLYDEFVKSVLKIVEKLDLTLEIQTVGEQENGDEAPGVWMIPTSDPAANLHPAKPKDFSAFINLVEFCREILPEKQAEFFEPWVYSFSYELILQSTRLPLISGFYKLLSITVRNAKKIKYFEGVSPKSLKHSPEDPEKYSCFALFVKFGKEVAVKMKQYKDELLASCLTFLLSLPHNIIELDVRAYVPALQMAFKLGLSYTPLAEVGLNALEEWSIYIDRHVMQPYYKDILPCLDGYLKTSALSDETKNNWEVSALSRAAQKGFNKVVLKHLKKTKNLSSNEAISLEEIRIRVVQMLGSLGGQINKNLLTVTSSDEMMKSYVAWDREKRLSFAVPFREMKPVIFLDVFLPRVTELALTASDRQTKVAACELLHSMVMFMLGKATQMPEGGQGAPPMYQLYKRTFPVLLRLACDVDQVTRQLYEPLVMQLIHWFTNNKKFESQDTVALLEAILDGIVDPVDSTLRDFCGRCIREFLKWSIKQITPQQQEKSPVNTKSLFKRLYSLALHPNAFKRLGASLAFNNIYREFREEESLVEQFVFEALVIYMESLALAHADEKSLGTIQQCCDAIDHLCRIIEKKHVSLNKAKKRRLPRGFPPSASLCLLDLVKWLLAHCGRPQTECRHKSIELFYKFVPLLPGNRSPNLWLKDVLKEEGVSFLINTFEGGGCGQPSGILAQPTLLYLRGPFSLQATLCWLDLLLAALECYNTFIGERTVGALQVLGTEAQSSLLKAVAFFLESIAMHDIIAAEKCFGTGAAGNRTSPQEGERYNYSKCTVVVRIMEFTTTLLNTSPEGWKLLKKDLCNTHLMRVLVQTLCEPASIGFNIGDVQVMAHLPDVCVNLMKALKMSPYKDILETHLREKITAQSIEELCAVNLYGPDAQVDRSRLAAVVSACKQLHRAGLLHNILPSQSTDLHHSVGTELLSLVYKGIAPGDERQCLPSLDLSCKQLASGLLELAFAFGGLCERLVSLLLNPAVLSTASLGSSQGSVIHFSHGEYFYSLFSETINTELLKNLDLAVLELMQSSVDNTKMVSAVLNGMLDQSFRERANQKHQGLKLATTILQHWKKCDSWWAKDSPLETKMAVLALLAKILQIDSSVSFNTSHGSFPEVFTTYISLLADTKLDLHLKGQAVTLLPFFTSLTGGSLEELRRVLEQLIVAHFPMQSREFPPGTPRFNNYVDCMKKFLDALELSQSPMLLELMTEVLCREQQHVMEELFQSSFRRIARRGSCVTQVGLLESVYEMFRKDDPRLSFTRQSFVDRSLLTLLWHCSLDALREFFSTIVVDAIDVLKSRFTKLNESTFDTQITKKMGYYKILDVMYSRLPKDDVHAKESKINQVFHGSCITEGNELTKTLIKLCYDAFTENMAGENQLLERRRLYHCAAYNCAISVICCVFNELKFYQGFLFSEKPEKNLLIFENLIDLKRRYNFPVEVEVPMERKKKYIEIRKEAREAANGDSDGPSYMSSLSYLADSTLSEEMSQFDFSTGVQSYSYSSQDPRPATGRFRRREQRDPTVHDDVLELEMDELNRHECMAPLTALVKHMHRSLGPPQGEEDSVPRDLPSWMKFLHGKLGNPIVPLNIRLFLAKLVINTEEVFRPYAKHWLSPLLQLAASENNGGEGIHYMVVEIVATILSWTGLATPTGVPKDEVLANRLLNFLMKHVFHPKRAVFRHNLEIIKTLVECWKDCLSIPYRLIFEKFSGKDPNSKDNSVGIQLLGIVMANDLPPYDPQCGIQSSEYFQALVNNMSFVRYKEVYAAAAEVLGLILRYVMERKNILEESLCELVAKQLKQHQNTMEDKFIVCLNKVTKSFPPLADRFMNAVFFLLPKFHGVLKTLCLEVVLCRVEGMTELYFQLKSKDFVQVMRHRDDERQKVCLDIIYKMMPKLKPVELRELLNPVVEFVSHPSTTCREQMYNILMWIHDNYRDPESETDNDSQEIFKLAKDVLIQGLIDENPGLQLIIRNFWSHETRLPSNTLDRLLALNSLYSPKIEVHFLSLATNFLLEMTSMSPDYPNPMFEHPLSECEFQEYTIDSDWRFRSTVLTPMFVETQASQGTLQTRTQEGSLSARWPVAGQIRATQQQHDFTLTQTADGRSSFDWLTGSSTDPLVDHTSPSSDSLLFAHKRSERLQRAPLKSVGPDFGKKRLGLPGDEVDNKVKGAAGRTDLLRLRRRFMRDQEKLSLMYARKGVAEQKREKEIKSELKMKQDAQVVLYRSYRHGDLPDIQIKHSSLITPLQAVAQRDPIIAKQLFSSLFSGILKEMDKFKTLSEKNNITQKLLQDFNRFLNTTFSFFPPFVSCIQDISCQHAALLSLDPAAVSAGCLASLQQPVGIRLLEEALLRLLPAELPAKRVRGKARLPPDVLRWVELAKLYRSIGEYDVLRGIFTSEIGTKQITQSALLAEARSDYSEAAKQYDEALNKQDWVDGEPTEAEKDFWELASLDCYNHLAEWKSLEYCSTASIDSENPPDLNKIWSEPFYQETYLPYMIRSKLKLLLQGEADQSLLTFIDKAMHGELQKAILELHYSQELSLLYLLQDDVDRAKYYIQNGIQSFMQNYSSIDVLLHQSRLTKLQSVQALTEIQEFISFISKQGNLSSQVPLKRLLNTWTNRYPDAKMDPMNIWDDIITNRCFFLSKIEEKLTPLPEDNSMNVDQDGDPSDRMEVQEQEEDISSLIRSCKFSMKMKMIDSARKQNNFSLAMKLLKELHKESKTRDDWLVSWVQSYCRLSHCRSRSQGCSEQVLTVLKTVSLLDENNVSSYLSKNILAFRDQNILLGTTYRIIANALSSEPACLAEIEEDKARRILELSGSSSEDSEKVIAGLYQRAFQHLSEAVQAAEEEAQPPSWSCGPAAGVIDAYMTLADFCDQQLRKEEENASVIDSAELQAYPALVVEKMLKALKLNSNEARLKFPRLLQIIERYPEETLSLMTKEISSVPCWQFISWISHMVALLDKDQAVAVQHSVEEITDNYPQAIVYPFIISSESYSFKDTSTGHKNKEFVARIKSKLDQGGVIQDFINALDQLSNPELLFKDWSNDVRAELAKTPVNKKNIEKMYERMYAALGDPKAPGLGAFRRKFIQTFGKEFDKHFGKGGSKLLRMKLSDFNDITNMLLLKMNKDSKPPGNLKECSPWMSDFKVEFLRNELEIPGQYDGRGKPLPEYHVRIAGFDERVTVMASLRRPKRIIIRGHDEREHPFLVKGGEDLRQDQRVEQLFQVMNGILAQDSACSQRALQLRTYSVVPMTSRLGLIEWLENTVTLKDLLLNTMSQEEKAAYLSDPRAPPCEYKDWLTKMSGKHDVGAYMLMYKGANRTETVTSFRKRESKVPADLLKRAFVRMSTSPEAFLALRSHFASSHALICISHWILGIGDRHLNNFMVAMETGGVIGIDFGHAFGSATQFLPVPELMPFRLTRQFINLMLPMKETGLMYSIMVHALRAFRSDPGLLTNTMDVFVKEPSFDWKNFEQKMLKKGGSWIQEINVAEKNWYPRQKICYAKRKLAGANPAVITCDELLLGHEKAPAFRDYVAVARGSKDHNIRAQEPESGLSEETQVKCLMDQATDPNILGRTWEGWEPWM

Row | SMILES | IC50 [1] [nM] | IC50 (mTOR) [nM] | IC50 [2] [nM] | IC50 [3] [nM]
1 | C[C@H]1COCCN1c1nc(-c2ccc(NC(=O)NCCO)cc2)nc2c1CS(=O)(=O)C2 [Example 13, (S)-1-(2-hydroxyethyl)-3-(4-(4-(3-methylmorpholino)-6,6-dioxido-5,7-dihydrothieno[3,4-d]pyrimidin-2-yl)phenyl)urea] | 1000 to 10000 | < 100 | 1000 to 10000 | 
2 | C[C@H]1COCCN1c1nc(-c2ccc(NC(=O)NCCF)cc2)nc2c1CS(=O)(=O)C2 [Example 14, (S)-1-(2-fluoroethyl)-3-(4-(4-(3-methylmorpholino)-6,6-dioxido-5,7-dihydrothieno[3,4-d]pyrimidin-2-yl)phenyl)urea] | 100 to 1000 | < 100 | > 3000 | 
3 | CCNC(=O)Nc1ccc(-c2nc3c(c(N4CC5CCC(C4)O5)n2)CS(=O)(=O)C3)cc1 [Example 15, 1-(4-(4-(8-oxa-3-azabicyclo[3.2.1]octan-3-yl)-6,6-dioxido-5,7-dihydrothieno[3,4-d]pyrimidin-2-yl)phenyl)-3-ethylurea] | < 100 | < 100 | > 10000 | 
4 | O=C(NCCO)Nc1ccc(-c2nc3c(c(N4CC5CCC(C4)O5)n2)CS(=O)(=O)C3)cc1 [Example 16, 1-(4-(4-(8-oxa-3-azabicyclo[3.2.1]octan-3-yl)-6,6-dioxido-5,7-dihydrothieno[3,4-d]pyrimidin-2-yl)phenyl)-3-(2-hydroxyethyl)urea] | 1000 to 10000 | < 100 | > 10000 | 
5 | O=C(Nc1ccc(-c2nc3c(c(N4CCOCC4)n2)CS(=O)(=O)C3)cc1)NC1CC1 [Example 18, 1-cyclopropyl-3-(4-(4-morpholino-6,6-dioxido-5,7-dihydrothieno[3,4-d]pyrimidin-2-yl)phenyl)urea] | 100 to 1000 | < 100 | > 10000 | 
6 | O=C(NCCF)Nc1ccc(-c2nc3c(c(N4CC5CCC(C4)O5)n2)CS(=O)(=O)C3)cc1 [Example 22, 1-(4-(4-(8-oxa-3-azabicyclo[3.2.1]octan-3-yl)-6,6-dioxido-5,7-dihydrothieno[3,4-d]pyrimidin-2-yl)phenyl)-3-(2-fluoroethyl)urea] | 100 to 1000 | < 100 | > 10000 | 
7 | O=C(Nc1ccc(-c2nc3c(c(N4C5CCC4COC5)n2)CS(=O)(=O)C3)cc1)NC1CC1 [Example 26, 1-(4-(4-(3-oxa-8-azabicyclo[3.2.1]octan-8-yl)-6,6-dioxido-5,7-dihydrothieno[3,4-d]pyrimidin-2-yl)phenyl)-3-cyclopropylurea] | < 100 | < 100 | > 10000 | 
8 | C[C@H]1COCCN1c1nc(-c2ccc(NC(=O)NCCCF)cc2)nc2c1CS(=O)(=O)C2 [Example 28, (S)-1-(3-fluoropropyl)-3-(4-(4-(3-methylmorpholino)-6,6-dioxido-5,7-dihydrothieno[3,4-d]pyrimidin-2-yl)phenyl)urea] | 100 to 1000 | 100 to 1000 | > 10000 | 
9 | O=C(NCCCF)Nc1ccc(-c2nc3c(c(N4CC5CCC(C4)O5)n2)CS(=O)(=O)C3)cc1 [Example 29, 1-(4-(4-(8-oxa-3-azabicyclo[3.2.1]octan-3-yl)-6,6-dioxido-5,7-dihydrothieno[3,4-d]pyrimidin-2-yl)phenyl)-3-(3-fluoropropyl)urea] | 100 to 1000 | 100 to 1000 | > 10000 | 
10 | CC1c2c(nc(-c3ccc(NC(=O)NC4CC4)cc3)nc2N2CCOCC2)CS1(=O)=O (stereo not drawn) [Example 31, 1-cyclopropyl-3-(4-(5-methyl-4-morpholino-6,6-dioxido-5,7-dihydrothieno[3,4-d]pyrimidin-2-yl)phenyl)urea] | < 100 | 100 to 1000 | > 10000 | 
11 | CCC1COCCN1c1nc(-c2ccc(NC(=O)NC3CC3)cc2)nc2c1C(C)S(=O)(=O)C2 (stereo not drawn) [Example 32, 1-cyclopropyl-3-(4-(4-(3-ethylmorpholino)-5-methyl-6,6-dioxido-5,7-dihydrothieno[3,4-d]pyrimidin-2-yl)phenyl)urea] | < 100 | < 100 | > 10000 | 
12 | C[C@H]1COCCN1c1nc(-c2ccc(NC(=O)Nc3ccncc3)cc2)nc2c1CS(=O)(=O)C2 [Example 35, (S)-1-(4-(4-(3-methylmorpholino)-6,6-dioxido-5,7-dihydrothieno[3,4-d]pyrimidin-2-yl)phenyl)-3-(pyridin-4-yl)urea] | < 100 | < 100 | > 10000 | 
13 | CCNC(=O)Nc1ccc(-c2nc3c(c(N4CCOC[C@@H]4C)n2)C(C)S(=O)(=O)C3)cc1 (stereo partly drawn) [Example 38, 1-ethyl-3-(4-(5-methyl-4-((S)-3-methylmorpholino)-6,6-dioxido-5,7-dihydrothieno[3,4-d]pyrimidin-2-yl)phenyl)urea] | < 100 | < 100 |  | 158
14 | CCNC(=O)Nc1ccc(-c2nc3c(c(N4CCOC[C@@H]4C)n2)[C@@H](C)S(=O)(=O)C3)cc1 [Example 39, 1-ethyl-3-(4-((R)-5-methyl-4-((S)-3-methylmorpholino)-6,6-dioxido-5,7-dihydrothieno[3,4-d]pyrimidin-2-yl)phenyl)urea] | < 100 | < 100 |  | 100
15 | CCNC(=O)Nc1ccc(-c2nc3c(c(N4CCOC[C@@H]4C)n2)[C@H](C)S(=O)(=O)C3)cc1 [Example 40, 1-ethyl-3-(4-((S)-5-methyl-4-((S)-3-methylmorpholino)-6,6-dioxido-5,7-dihydrothieno[3,4-d]pyrimidin-2-yl)phenyl)urea] | < 100 | < 100 |  | 200
16 | CCNC(=O)Nc1ccc(-c2nc(N3CCOC[C@@H]3C)c3c(n2)C(C)(C)S(=O)(=O)C3C)cc1 (stereo partly drawn) [Example 42, 1-ethyl-3-(4-(5,7,7-trimethyl-4-((S)-3-methylmorpholino)-6,6-dioxido-5,7-dihydrothieno[3,4-d]pyrimidin-2-yl)phenyl)urea] | < 100 | < 100 |  | 251
17 | CC1c2nc(-c3ccc(NC(=O)NC4CC4)cc3)nc(N3CCOC[C@@H]3C)c2C(C)S1(=O)=O (stereo partly drawn) [Example 44, 1-cyclopropyl-3-(4-(5,7-dimethyl-4-((S)-3-methylmorpholino)-6,6-dioxido-5,7-dihydrothieno[3,4-d]pyrimidin-2-yl)phenyl)urea] | < 100 | < 100 |  | 39.8
18 | CNC(=O)Nc1ccc(-c2nc(N3CCOC[C@@H]3C)c3c(n2)C(C)(C)S(=O)(=O)C3)cc1F [Example 65, (S)-1-(4-(7,7-dimethyl-4-(3-methylmorpholino)-6,6-dioxido-5,7-dihydrothieno[3,4-d]pyrimidin-2-yl)-2-fluorophenyl)-3-methylurea] | < 100 | 100 to 1000 | > 10000 | 
